From patent US12522596B2, “Compounds as GLP-1R agonists” (Terns Pharmaceuticals, Inc., priority 2021, dated 2026)

Molecular target: T1, human GLP-1R receptor (Homo sapiens, UniProt P43220)
T1 construct: expressed in transfected cells
Assay: GLP-1R low expression cell assay (cAMP TR-FRET, CHO-K1_hGLP-1Rlow_clone10)
Assay type: cell-based
Conditions: CHO-K1_hGLP-1Rlow_clone10 cells
Experimental: Stable cell lines expressing high and low GLP-1R surface expression were generated in CHO-K1 cells transfected (Fugene 6) with a puromycin selectable DNA plasmid encoding human GLP-1R receptor (accession number: NM_002062.5) under control of an EF1A promoter. Transfected cells were seeded into 24-well plates (9,000 cells/well) containing complete medium and incubated in a humidified incubator at 37° C. with 5% carbon dioxide. After overnight incubation, medium was replaced with complete medium supplemented with puromycin (6 μg/mL) and refreshed every 2-3 days to select for stably transfected cells. Individual pools of selected cells were expanded prior to analysis for responsiveness to GLP-1 control peptide using a TR-FRET assay to detect cAMP (LANCE Ultra CAMP Assay, Perkin Elmer). Briefly, cells were collected in Versene solution, plated in 384-well plates (1,000 cells/well) and combined with serially diluted GLP-1R control peptide (10 nL) using an acoustic dispenser (ECHO). Plates were incubated for 30 minutes at 25° C. prior to the addition of EU-CAMP tracer (5 μL) and Ulight-anti-cAMP (5 μL) reagents to each well, followed by 15 minutes incubation at 25° C. TR-FRET signal was detected using an En Vision Multimode Plate Reader (excitation=320 nm; emission=615 and 655 nm). Dose-response curves were used to generate EC50 values as a measure of responsiveness to the GLP-1R control peptide. Selected cell lines were monitored for responsiveness over multiple passages to ensure stability. […] Briefly, GLP-1R expression was analyzed by flow cytometry using a fluorescein-labeled Exendin-4 peptide fluorescent probe (FLEX). Cells were harvested in Versene solution and washed 3-times with PBS+0.5% BSA before incubation with FLEX reagent (10 μM) for 2 hours at room temperature. After incubation, cells were washed 3-times in PBS+0.5% BSA before final resuspension in PBS prior to analysis by flow cytometry to measure FLEX mean fluorescence intensity (MFI) as a measure of GLP-1R expression on the cell surface.
For compound testing in the CHO-K1_hGLP-1Rlow_clone10 cell line, cells were seeded in 384-well plates (1,000 cells/well). Test compounds were serially diluted in DMSO (10-point, 3-fold dilution), added to wells using an ECHO dispenser (10 nL/well) and plates were centrifuged for 1 min and agitated for 2 min at room temperature prior to 30-minute incubation at 25° C. After incubation, Eu-CAMP (5 μL) and Ulight-anti-cAMP (5 μL) reagents were added to each well, followed by centrifugation for 1 minute, agitation for 2 minutes at room temperature, and final incubation of the plates at 25° C. for 15 minutes. Plates were read using an EnVision microplate reader (excitation=320 nm; emission=615 and 655 nm). Dose-response curves were generated from duplicate wells based on percent activation calculated relative to a control GLP-1 peptide agonist that was run in parallel. EC50 values were determined by fitting percent activation as a function of compound concentration using the Hill equation (XLfit).
Stable cell lines expressing high and low GLP-1R surface expression were generated in CHO-K1 cells transfected (Fugene 6) with a puromycin selectable DNA plasmid encoding human GLP-1R receptor (accession number: NM_002062.5) under control of an EF1A promoter. Transfected cells were seeded into 24-well plates (9,000 cells/well) containing complete medium and incubated in a humidified incubator at 37° C. with 5% carbon dioxide. After overnight incubation, medium was replaced with complete medium supplemented with puromycin (6 μg/mL) and refreshed every 2-3 days to select for stably transfected cells. Individual pools of selected cells were expanded prior to analysis for responsiveness to GLP-1 control peptide using a TR-FRET assay to detect cAMP (LANCE Ultra CAMP Assay, Perkin Elmer).

T1 sequence (P43220 24-463): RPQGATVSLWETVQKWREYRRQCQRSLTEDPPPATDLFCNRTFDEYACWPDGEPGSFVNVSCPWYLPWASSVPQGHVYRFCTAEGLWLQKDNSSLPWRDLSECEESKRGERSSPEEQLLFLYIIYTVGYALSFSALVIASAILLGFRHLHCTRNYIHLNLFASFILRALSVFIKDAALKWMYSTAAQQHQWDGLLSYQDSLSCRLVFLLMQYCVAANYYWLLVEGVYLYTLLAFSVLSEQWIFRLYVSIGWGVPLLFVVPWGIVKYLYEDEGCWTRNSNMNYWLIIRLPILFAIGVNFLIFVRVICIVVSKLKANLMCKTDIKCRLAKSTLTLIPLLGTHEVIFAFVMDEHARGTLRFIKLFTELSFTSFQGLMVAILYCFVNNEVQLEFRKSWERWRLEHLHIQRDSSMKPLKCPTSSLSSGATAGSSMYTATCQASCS

SMILES	EC50 [µM]
COc1ccsc1Cn1c(CN2CCC(c3cccc(OCc4nc5c(F)cc(C#N)cc5s4)n3)CC2)nc2ccc(C(=O)O)cc21 [Compound 10]	0.393
N#Cc1cc(F)c2nc(COc3cccc(C4CCN(Cc5nc6ccc(C(=O)O)cc6n5Cc5scnc5Br)CC4)n3)sc2c1 [Compound 6]	0.135
N#Cc1ccc(COc2ccnc([C@@]34CCN(Cc5nc6ccc(C(=O)O)cc6n5Cc5cncs5)C[C@@H]3C4)n2)c(F)c1 [Compound 19]	0.161
CCc1ncsc1Cn1c(CN2CCC(c3cccc(OCc4nc5c(F)cc(C#N)cc5s4)n3)CC2)nc2ccc(C(=O)O)cc21 [Compound 8]	0.36

Stronger by EC50, values ahead:

EC50 [µM]	SMILES
0.0875	O=C(O)c1ccc2nc(CN3CC[C@@]4(c5nccc(OCc6ccc(Cl)cc6F)n5)C[C@H]4C3)n(Cc3cncs3)c2c1 [Compound 22]
0.0501	N#Cc1ccc(COc2cccc(C3CCN(Cc4nc5ccc(C(=O)O)cc5n4Cc4nccs4)CC3)n2)c(F)c1 [Compound 1]
0.0151	O=C(O)c1ccc2nc(CN3CC[C@]4(c5cccc(OCc6ccc(Cl)cc6F)n5)C[C@@H]4C3)n(Cc3cncs3)c2c1 [Compound 24]
0.0099	N#Cc1ccc(COc2ccnc([C@]34CCN(Cc5nc6ccc(C(=O)O)cc6n5Cc5cncs5)C[C@H]3C4)n2)c(F)c1 [Compound 18]
0.0066	O=C(O)c1ccc2nc(CN3CC[C@]4(c5nccc(OCc6ccc(Cl)cc6F)n5)C[C@@H]4C3)n(Cc3cncs3)c2c1 [Compound 21]
0.0054	N#Cc1cc(F)c2nc(COc3cccc(C4CCN(Cc5nc6ccc(C(=O)O)cc6n5Cc5cncs5)CC4)n3)sc2c1 [Compound 5]
